Results as given in US9067894B1, “Compound, composition, and method of activating GIRK potassium channel and use of same for treating conditions of interest” (Vanderbilt University, priority 2013, dated 2015).
Converted amounts (≈) assume the structure as drawn. “Also recorded” adds a separate entry of the source.

Experiments:
GIRK2/3 = biological target: T1, GIRK2/3 (Homo sapiens, UniProt P48051+Q92806); assay: Whole-cell voltage-clamp, GIRK2/3-expressing HEK-293 cells; type: cell-based; settings: cell line GIRK2-3
T1 construct: expressed in transfected cells; host or cells: HEK-293
T1 sequence (P48051 1-423): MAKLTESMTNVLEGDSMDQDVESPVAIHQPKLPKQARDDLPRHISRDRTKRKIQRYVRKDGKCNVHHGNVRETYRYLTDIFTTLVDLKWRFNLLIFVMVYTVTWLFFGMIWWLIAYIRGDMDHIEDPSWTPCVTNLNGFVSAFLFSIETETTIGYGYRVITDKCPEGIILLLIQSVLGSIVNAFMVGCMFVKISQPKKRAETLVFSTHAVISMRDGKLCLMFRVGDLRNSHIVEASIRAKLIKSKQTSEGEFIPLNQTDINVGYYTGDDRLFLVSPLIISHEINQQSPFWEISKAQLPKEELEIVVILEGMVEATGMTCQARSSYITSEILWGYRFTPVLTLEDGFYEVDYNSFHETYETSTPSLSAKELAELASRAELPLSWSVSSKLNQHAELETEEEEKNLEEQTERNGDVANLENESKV
T1 sequence (Q92806 1-393): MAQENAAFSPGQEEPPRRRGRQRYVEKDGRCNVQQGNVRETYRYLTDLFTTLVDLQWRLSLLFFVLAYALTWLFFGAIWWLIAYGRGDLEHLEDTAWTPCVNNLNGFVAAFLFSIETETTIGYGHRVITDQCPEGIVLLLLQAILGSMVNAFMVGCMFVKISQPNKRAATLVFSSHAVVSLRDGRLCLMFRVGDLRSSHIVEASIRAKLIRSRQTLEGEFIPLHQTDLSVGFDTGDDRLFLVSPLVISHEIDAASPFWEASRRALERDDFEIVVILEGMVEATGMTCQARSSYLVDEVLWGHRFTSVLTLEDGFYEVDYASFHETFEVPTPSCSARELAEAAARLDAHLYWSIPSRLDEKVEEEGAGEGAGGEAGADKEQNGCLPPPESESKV
Text: Cell Line Construction and Cell Culture. HEK-293 cells co-expressing human GIRK1/2 and rat mGlu8 were generated as previously described (Niswender et al., 2008). A HEK-293 cell line (ATCC, Manassas, Va.) expressing human GIRK1 and human GIRK2 was constructed by transfecting HEK-293 cells with GIRK1 and GIRK2 (Origene, Rockville, Md.) cloned into the pBudCE4.1 vector (Life Technologies, Carlsbad, Calif.) using FuGene 6 (Promega, Madison, Wis.) transfection reagent. […]
A single-cell suspension of HEK-293 cells stably transfected with the appropriate ion channels were plated into TC-treated 35 mm polystyrene dishes at ˜15% confluence and incubated overnight in a 5% CO2 cell culture incubator at 37° C. […] Whole cell currents were recorded in 20K extracellular solution at −70 mV using a Pico 1 amplifier (Tecella, Foothill Ranch, Calif.) controlled by WINWCP 4.X (University of Strathclyde, Glasgow, Scotland, UK). […] One day after transfection, cells were plate into 35 mm polystyrene dishes, incubated and recorded as described above. […]
(§1) Voltage-clamp data were analyzed by converting current amplitudes to current density by dividing by each cell's membrane capacitance estimated from capacitance compensation. […]

Solubility = type: physicochemical
[1] = biological target: T2, GABAA receptors (α1, β2, γ2 subunit combination) (Homo sapiens, UniProt P14867+P18507+P47870); assay: Whole-cell voltage-clamp on GABAA receptors transiently transfected in HEK-293 cells; type: cell-based; settings: activation or potentiation of GABA-evoked currents
T2 construct: expressed in transfected cells; host or cells: HEK-293 (transient)
T2 sequence (P14867 28-456): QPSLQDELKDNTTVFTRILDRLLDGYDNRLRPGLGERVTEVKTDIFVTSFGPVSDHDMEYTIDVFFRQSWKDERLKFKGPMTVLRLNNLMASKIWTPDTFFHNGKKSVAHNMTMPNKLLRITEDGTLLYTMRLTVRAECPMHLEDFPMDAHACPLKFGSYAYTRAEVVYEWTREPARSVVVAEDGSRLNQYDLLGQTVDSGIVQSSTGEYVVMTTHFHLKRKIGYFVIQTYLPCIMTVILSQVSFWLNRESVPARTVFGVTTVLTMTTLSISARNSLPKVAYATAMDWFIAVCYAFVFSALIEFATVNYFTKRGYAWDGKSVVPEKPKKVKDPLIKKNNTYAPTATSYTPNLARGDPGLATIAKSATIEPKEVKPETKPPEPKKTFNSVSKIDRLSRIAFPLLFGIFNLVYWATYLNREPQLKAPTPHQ
T2 sequence (P47870 25-512 limits assumed): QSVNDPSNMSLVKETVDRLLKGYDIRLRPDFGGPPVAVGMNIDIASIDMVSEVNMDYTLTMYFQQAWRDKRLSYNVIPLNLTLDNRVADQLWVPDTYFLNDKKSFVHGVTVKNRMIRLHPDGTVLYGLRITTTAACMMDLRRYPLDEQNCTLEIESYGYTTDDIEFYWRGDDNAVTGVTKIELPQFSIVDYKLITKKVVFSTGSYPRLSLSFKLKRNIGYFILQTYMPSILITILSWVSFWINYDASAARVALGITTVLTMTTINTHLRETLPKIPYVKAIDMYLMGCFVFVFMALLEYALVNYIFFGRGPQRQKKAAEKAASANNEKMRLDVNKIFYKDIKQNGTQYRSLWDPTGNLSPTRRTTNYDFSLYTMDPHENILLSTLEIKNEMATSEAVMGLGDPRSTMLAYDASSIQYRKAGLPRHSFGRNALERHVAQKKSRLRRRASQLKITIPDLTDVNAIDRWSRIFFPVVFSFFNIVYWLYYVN
T2 sequence (P18507 40-475): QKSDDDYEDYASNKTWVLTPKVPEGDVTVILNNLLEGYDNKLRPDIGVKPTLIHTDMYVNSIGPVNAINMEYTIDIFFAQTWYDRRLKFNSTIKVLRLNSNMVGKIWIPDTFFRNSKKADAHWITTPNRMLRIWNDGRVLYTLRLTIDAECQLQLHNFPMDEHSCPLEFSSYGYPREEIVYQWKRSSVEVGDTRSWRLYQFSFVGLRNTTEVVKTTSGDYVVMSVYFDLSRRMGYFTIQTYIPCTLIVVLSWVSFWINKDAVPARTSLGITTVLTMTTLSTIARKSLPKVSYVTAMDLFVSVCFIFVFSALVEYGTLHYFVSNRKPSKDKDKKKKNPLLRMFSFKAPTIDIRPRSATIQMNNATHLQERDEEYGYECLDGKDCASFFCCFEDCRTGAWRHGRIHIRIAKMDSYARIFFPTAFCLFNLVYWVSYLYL
Description: A single-cell suspension of HEK-293 cells stably transfected with the appropriate ion channels were plated into TC-treated 35 mm polystyrene dishes at ˜15% confluence and incubated overnight in a 5% CO2 cell culture incubator at 37° C. Whole-cell patch-clamp recordings were performed 24-72 h after plating. Borosilicate glass electrodes ([…] resistance) were filled with Intracellular Solution (130 mM KCl, 20 mM NaCl, 5 mM EGTA, 5.46 mM MgCl2, and 10 mM HEPES, pH 7.4). Whole cell currents were recorded in 20K extracellular solution at −70 mV using a Pico 1 amplifier (Tecella, Foothill Ranch, Calif.) controlled by WINWCP 4.X (University of Strathclyde, Glasgow, Scotland, UK). Signals were compensated for electrode capacitance, cellular capacitance and series resistance. Signals were filtered at 1 kHz, and digitized at 5 kHz. Solutions were applied to the cell with a Valvelink 8.2 (Automate Scientific, Berkeley, Calif.) rapid, valve-controlled perfusion system with in-house-made local superfusion manifold. […] One day after transfection, cells were plate into 35 mm polystyrene dishes, incubated and recorded as described above. […]
as §1

Rotarod test = type: in vivo, mouse; settings: mice, 60 mg/kg i.p.
Description: For rotarod tests, a rotarod module was inserted into a mouse home cage and was operated by the SmartCage™ (AfaSci, Inc., Redwood City, Calif.) system28. A mouse was placed on the rod and the rod began to rotate at a fixed speed (15 rpm). Latencies for the mice to fall off the rod were recorded. […] Two groups of mice (n=8 mice/group) were trained on the rotarod over 4 consecutive days. On training days, each mouse was allowed to perform on the rotarod a total of 4 times. For each training day, each mouse's lowest rotarod latency was excluded. The remaining 3 rotarod latencies were averaged and served as the mouse's rotarod performance for that training day. […] Approximately 1 hour post-drug/vehicle injection, each mouse's rotarod performance was assessed a total of 4 times with the mouse's worst performance being excluded. The remaining 3 rotarod latencies were then averaged for each mouse and these values were normalized to the mouse's previous performance on the final training day to account for variation in individual animal's competency on the rotarod.

Cc1cc(NC(=O)Nc2ccc(F)c(F)c2)n(-c2ccccc2)n1 [VU0456810, 1-(3,4-difluorophenyl)-3-(3-methyl-1-phenyl-1H-pyrazol-5-yl)urea]
EC50 Voltage Clamp (GIRK2/3): Inactive
solubility (Solubility): 17.5 µM (≈ 5.75 µg/mL)
Potency [1]: failed to show any activation or potentiation; also recorded: Inactive
rotarod performance compared to vehicle (Rotarod test): small and insignificant decrease
decrease in performance on the rotarod vs vehicle (Rotarod test; insignificant (p=0.7)): 14%
